Data set [1] in a line: pKa of the coordinated aqua ligand by UV–vis pH titration. Format: physicochemical. Conditions: [M(arene/arenyl)(ligand)(H2O)]2+; chloride-free; I = 0.2 M KNO3; t = 25 °C. Here is the method:
The K a values of the complexes with BP and DCP ligands for the [M(η^6-arene/η^5-arenyl)(ligand)(H2O)]^2+ ⇌ [M(η^6-arene/η^5-arenyl)(ligand)(OH)]^+ + H^+ process also provide valuable insights into their behavior in aqueous solutions. In order to determine the K a values, UV–vis spectra were recorded at different pH values under chloride-free conditions, as shown for the complex RuCymDCP in Figure , and the determined pK a values are presented in Table . […] However, at higher pH values, spectral shifts indicate the onset of aqua ligand deprotonation. For RuCym complexes, the calculated pK a values (Table ) indicate moderate acidity and a higher tendency for deprotonation at physiological pH compared with the RhCp* complexes. […] This lower value is most likely due to the stronger tendency of IrCp*, as well as RuCym, to undergo hydrolysis compared to RhCp*.
(§1) An Agilent Cary 8454 diode array spectrophotometer was utilized to obtain UV–vis spectra in the wavelength range 190–1100 nm; the path length was 1 cm. The concentrations of the complexes were between 20 and 100 μM. The actual pH of the samples were measured with an Orion 710A pH-meter equipped with a Metrohm combined electrode (type 6.0234.100) and the pH titrations were performed by a KOH solution using a Metrohm 665 Dosimat buret at 25.0 °C. […] The computer program HypSpec was used to calculate the equilibrium constants.

A short description of data set [2]: H2O/Cl– co-ligand exchange constant by UV–vis spectrophotometry. It counts as physicochemical. Conditions: pH = 6.0, 20 mM phosphate buffer; t = 25 °C. Here is the method: The coordinated chlorido ligand can undergo spontaneous partial exchange upon dissolution, making it essential to determine the equilibrium constant for the [M(η^6-arene/η^5-arenyl)(ligand)-Cl]^+ + H2O ⇌ [M(η^6-arene/η^5-arenyl)(ligand)(H2O)]^2+ + Cl^– process (or for the reverse direction) to evaluate the ratio of chlorido to aqua complexes. The logK′ (H2O/Cl^–) constants were determined by UV–vis spectrophotometry (Figure ) due to the changes in the charge transfer bands. […] Importantly, this process is slow for the RuCym complexes, which requires a longer time to reach equilibrium, necessitating careful equilibration in experimental setups before further analysis. Therefore, in the case of the RuCym complexes, individual samples were prepared and their spectra were measured after 1 h, while the spectra for the RhCp* complexes were obtained by direct titration with the KCl solution. The appearance of isosbestic points in the spectra confirms the clear equilibrium between chlorido- and aqua complexes.
4 (a) Changes in the UV–vis spectra of complex RuCymBP due to the H2O/Cl^– coligand exchange process, (b) with absorbance variation at 357 nm plotted as a function of the chloride concentration (○) with the fitted curve (dashed line). Individual samples were prepared and the spectra were recorded after 1 h waiting time. {c complex = 28 μM; c Cl– = 56 μM – 0.29 M; t = 25 °C; pH = 6.0 (20 mM phosphate buffer)}.
as §1

Data set [3] deals with T1, human serum albumin (HSA), Trp-214 in Sudlow’s site I (Homo sapiens, UniProt P02768).
T1 construct: purchased Sigma-Aldrich A8763
T1 sequence (P02768 25-609): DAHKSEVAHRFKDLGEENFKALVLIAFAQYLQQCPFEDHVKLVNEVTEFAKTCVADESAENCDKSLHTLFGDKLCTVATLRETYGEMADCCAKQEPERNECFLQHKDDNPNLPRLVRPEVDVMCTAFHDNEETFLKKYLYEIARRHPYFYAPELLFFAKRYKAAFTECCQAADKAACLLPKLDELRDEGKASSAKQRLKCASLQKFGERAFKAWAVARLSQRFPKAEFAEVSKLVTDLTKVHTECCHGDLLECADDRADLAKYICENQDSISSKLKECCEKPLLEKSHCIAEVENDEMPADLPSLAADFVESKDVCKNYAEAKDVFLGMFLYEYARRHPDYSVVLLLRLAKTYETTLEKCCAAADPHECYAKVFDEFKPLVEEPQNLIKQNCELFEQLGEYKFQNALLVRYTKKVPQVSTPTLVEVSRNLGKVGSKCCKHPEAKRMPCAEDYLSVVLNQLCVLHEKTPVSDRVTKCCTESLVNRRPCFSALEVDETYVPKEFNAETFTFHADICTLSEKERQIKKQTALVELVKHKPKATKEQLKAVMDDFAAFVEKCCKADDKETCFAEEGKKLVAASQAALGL
Kind of data set: Trp-214 fluorescence quenching of HSA. It counts as binding. Conditions: PBS’; t = 25 °C; 24 h incubation; c HSA = 1.2 μM; RuCym values conditional at 24 h. The text has this: Fluorescence spectroscopy was utilized to elucidate the binding sites on HSA that are targeted by the metal complexes. This investigation concentrated on two key aspects: the quenching of HSA’s intrinsic fluorescence attributed to the sole tryptophan residue (Trp-214) and the displacement of site-specific fluorescent markers warfarin (WF) and dansylglycine (DG). Trp-214 is situated in Sudlow’s site I within the IIA subdomain, rendering it a valuable probe for evaluating interactions at this site. Fluorometric measurements, conducted over a 5 h time frame (see example for RhCp*BP in Figure S19), corroborated the results of UV–vis experiments, the quenching of fluorescence took several hours for the RhCp* complexes, while RuCym compounds had no remarkable effect of Trp-214 fluorescence. Quenching studies were conducted over a 24 h incubation period. This time frame is most probably not enough to reach equilibrium with RuCym complexes; however, this is considered as the upper limit that can be physiologically relevant, as longer incubation times are rendered irrelevant by metabolism and elimination. […] Quenching constants (KQ^′) were computed using HypSpec software. […] It should be noted that quenching constants calculated for the RuCym complexes represent only a temporary state at 24 h of incubation time.
7 Binding interactions of RhCp*BP with HSA analyzed via fluorescence quenching and marker displacement assays. (a) Trp214 fluorescence quenching by RhCp*BP. (b) Measured (dots) and fitted (dashed lines) quenching curves for RhCp*BP, RuCymBP, RhCp*DCP, and RuCymDCP. Fluorescence spectra of the (c) HSA–WF 1:1 and (e) HSA–DG 1:1 systems by the addition of RhCp*BP (dashed lines indicate the free site marker) and the corresponding fluorescence intensity curves at the indicated wavelengths (d,f). The dotted line in figure (d) denotes the fitted intensities. {c HSA = 1.2 μM; c marker = 0 or 1.2 μM PBS’; t = 25 °C}.
Fluorescence measurements were carried out on a Fluoromax (Horiba Jobin Yvon) spectrofluorometer using a 1 cm × 1 cm quartz cuvette in order to assess the interactions of the complexes with HSA in PBS’ medium at 25 °C. The calculated quenching or displacement conditional constants for the HSA-complex species were obtained using the computer program HypSpec. Calculations always were based on data obtained from at least two independent measurements. Self-absorbance and inner filter effect had to be taken into account, and corrections were made as it was described in our former works. , […]
Table S7. Conditions applied for steady -state spectrofluorometric measurements. cHSA cMARKER ccomplex λEX λEM slit widths […]

Experimental findings from article PMC12308784, “Organometallic Half-Sandwich Complexes of 1,10-Phenanthroline Derivatives with Improved Solubility, Albumin-Binding, and Nanoformulation Potential Targeting Drug Resistance in Cancer” (Inorganic Chemistry, 2025) are described below.

“And” between values parts separate entries of the source, which are not always exact repeats. Identical values can stand only once.

As for `Cc1c(C)c(C)[c-](C)c1C.Clc1ccnc2c1ccc1c(Cl)ccnc12.[Cl-].[Cl-].[Rh+3]` [RhCp*DCP, [Rh(III)(η^5-C5Me5)(4,7-dichloro-1,10-phenanthroline)Cl]Cl], the “pK a [ML(H2O)]” value in data set [1] was 8.33 ± 0.05. The “logK′ (H2O/Cl–)” value in data set [2] was 2.85 ± 0.01 ^b. In addition, the “logK Q′ (quenching constant)” value in data set [3] was 4.6 and 4.6 ± 0.1.
Take `Cc1ccc(C(C)C)cc1.[Cl-].[Cl-].[Ru+2].c1ccc(-c2ccnc3c2ccc2c(-c4ccccc4)ccnc23)cc1` [RuCymBP, [Ru(II)(η^6-p-cymene)(bathophenanthroline)Cl]Cl]: in data set [1], the “pK a [ML(H2O)]” value came to 7.57 ± 0.06. Further, the “logK′ (H2O/Cl–)” value in data set [2] was found to be 2.31 ± 0.13. The “logK Q′ (quenching constant)” value in data set [3] stood at 4.3 ± 0.1.
Taken in the same sequence, the figures for `Cc1ccc(C(C)C)cc1.Clc1ccnc2c1ccc1c(Cl)ccnc12.[Cl-].[Cl-].[Ru+2]` [RuCymDCP, [Ru(II)(η^6-p-cymene)(4,7-dichloro-1,10-phenanthroline)Cl]Cl] were 7.21 ± 0.06, 2.31 ± 0.03 and at most 3.8.
Turning to “[Rh(III)(η^5-C5Me5)(bathophenanthroline)Cl]Cl [RhCp*BP]”, the “pK a [ML(H2O)]” value in data set [1] worked out at 8.81 ± 0.06. For the same molecule, the “logK′ (H2O/Cl–)” value in data set [2] came out at 2.98 ± 0.01. For the same molecule, the “logK Q′ (quenching constant)” value in data set [3] was 5.5 and 5.5 ± 0.1.
